Reference: patent US20130309187A1, “SKIN-WHITENING AGENT CONTAINING 3-HYDROXY-2-PYRONE” (NICHIREI BIOSCIENCES INC., priority 2011, published 2013)

Columns and labels:
[1] = system: B16 mouse melanoma 4A5 cells; test: Inhibition of melanin production in B16 mouse melanoma 4A5 cells; type: cell-based; settings: for Melanin level: 5 days culture with sample, relative to control designated as 100
Description: (§1) B16 mouse melanoma 4A5 cells (RIKEN) were seeded at 5.0 x 10^4 cells/well on a 6-well plate and cultured in Dulbecco's modified Eagle's medium (DMEM) supplemented with 10% FBS at 37° C. in the presence of 5% CO2. The medium was exchanged with fresh medium supplemented with the sample on the following day, and culture was conducted in the medium supplemented with the sample for an additional 5 days. The medium was removed 6 days after the initiation of culture, and the cells were collected by using trypsin. The collected cells were suspended in 1N sodium hydroxide, and melanin was extracted via heating. The absorbance of the melanin extract was measured at 405 nm, and the melanin level was quantified with the calibration curve of the melanin reagent (Sigma). In addition, the amount of proteins in the collected cells was determined using the DC Protein Assay KIT (BIO-RAD) and used as the indicator for the viable cell count.
as §1, with “5.0×10^4” for “5.0 x 10^4”

[2] = system: B16 mouse melanoma 4A5 cells; test: Viable cell count (protein amount, DC Protein Assay) in B16 mouse melanoma 4A5 cells
Description: as §1
as §1, with “5.0×10^4” for “5.0 x 10^4”

tyrosinase = test: Inhibitory effects on tyrosinase activity (L-tyrosine substrate, time course of absorbance at 475 nm, method of Patent Document 1); type: biochemical; settings: Experiment 4, FIG. 3, aqueous solution of 1% sample, 0-15 min
Description: The experiment was carried out in the same manner as that described in Patent Document 1. An aqueous solution of 1% 3H2P, an aqueous solution of 1% coumalin (Tokyo Chemical Industry Co., Ltd.), an aqueous solution of 1% coumalic acid (Tokyo Chemical Industry Co., Ltd.), and an aqueous solution of 0.01% kojic acid were prepared. Subsequently, 1.45 ml of a substrate-sample mixture comprising an aqueous solution of L-tyrosine (0.3 mg/ml), a sample solution of 3H2P, etc., and McIlvaine buffer (pH 6.8) was introduced into a test tube, 0.05 ml of a tyrosinase solution (1 mg/ml) was added thereto, the resultant was mounted on a spectrophotometer capable of maintaining a constant temperature of 37° C., and the absorbance was measured at 475 nm with the elapse of time (once every minute between 0 min and 15 min).

tyrosinase (Sigma) = test: Inhibition rate of tyrosinase activity (L-DOPA substrate, absorbance 475 nm); type: biochemical
Description: In the experiment, 0.2 ml of an enzyme solution containing 72 units/ml tyrosinase (Sigma) was mixed with 1.0 ml of a substrate mixture (i.e., a 2:2:1 mixture of a 6 mM L-DOPA solution, the test composition with the adjusted concentration (hereafter referred to as the “sample”), and phosphate buffer), the absorbance was measured at 475 nm at 37° C. at 0 min and […], and the inhibition rate of tyrosinase activity was determined using the equation shown below.
Inhibition rate of tyrosinase activity (%)=(1−(the difference in the absorbance of the sample between […] and 3 min)/(the difference in the absorbance of the blank between 0 min and 3 min)×100
(§2) In the experiment, 0.2 ml of an enzyme solution containing 72 units/ml tyrosinase (Sigma) was mixed with 1.0 ml of a substrate mixture (i.e., a 2:2:1 mixture of a 6 mM L-DOPA solution, the sample with the adjusted concentration, and phosphate buffer (pH 6.8)), the absorbance was measured at 475 nm at 37° C. at 0 min and 3 min, and the inhibition rate of tyrosinase activity was determined using the equation shown below.
Inhibition rate of tyrosinase activity (%)=(1−(the difference in the absorbance of the sample between 0 min and 3 min)/(the difference in the absorbance of the blank between 0 min and 3 min)×100
as §2, with “buffer),” for “buffer (pH 6.8)),”

[3] = Experiment 3, 1 μg/ml, relative to control designated as 100
[4] = Experiment 3, 5 μg/ml, relative to control designated as 100
[5] = Experiment 3, 10 μg/ml, relative to control designated as 100
[6] = Experiment 7, FIG. 6, 3H4P, 3H2P and kojic acid compared
[7] = Experiment 6, FIG. 5, kojic acid, 3H2P and 3H4P compared

OC[C@H]1O[C@@H](Oc2ccc(O)cc2)[C@H](O)[C@@H](O)[C@@H]1O [Arbutin, arbutin]
Melanin level ([1]; Experiment 3, 1 μg/ml): 82.4 | Melanin level ([1]; Experiment 3, 5 μg/ml): 43.0 | Melanin level ([1]; Experiment 3, 10 μg/ml): 23.9 | Cell count [2, 3]: 96.2 | Cell count [2, 4]: 91.7 | Cell count [2, 5]: 86.0

O=c1cccco1 [coumalin]
inhibitory effects on tyrosinase activity (tyrosinase): insignificant levels of inhibitory effects

O=c1occcc1O [3H2P, 3-hydroxy-2-pyrone]
inhibitory effects on melanin production ([1]; Experiment 3, FIG. 2, compared with arbutin and kojic acid): stronger than those of kojic acid and equivalent to those of arbutin | Melanin level ([1]; Experiment 3, 1 μg/ml): 71.7 | Melanin level ([1]; Experiment 3, 5 μg/ml): 34.3 | Melanin level ([1]; Experiment 3, 10 μg/ml): 20.7 | concentration at which inhibitory effects on melanin production are exerted ([1]; Experiment 3, 1 ppm = 1 μg/ml, 0.0001%): ≤ 1 ppm | inhibitory effects on melanin production [1, 6]: stronger inhibitory effects on melanin production than such γ-pyrone compounds | Melanin level ([1]; Experiment 7, 1 μg/ml): 77.2 | Melanin level ([1]; Experiment 7, 5 μg/ml): 42.7 | Melanin level ([1]; Experiment 7, 10 μg/ml): 29.6 | inhibitory effects on tyrosinase activity (tyrosinase (Sigma); Experiment 2, FIG. 1, compared with kojic acid and ascorbic acid): equivalent to those of ascorbic acid, although such effects are somewhat weaker than those of kojic acid | inhibitory effects on tyrosinase activity (tyrosinase (Sigma); Experiment 5, FIG. 4, final concentrations 0.3%, 0.1% and 0.033%): apparently stronger than those of coumalin and coumalic acid | inhibitory effects on tyrosinase activity (tyrosinase (Sigma); [7]): equivalent to those of 3H4P | inhibitory effects on tyrosinase activity (tyrosinase): significantly stronger than those of coumalin and coumalic acid | Cell count [2, 3]: 92.2 | Cell count [2, 4]: 81.9 | Cell count [2, 5]: 72.4 | Cell count ([2]; Experiment 7, 1 μg/ml, relative to control designated as 100): 102.0 | Cell count ([2]; Experiment 7, 5 μg/ml, relative to control designated as 100): 98.7 | Cell count ([2]; Experiment 7, 10 μg/ml, relative to control designated as 100): 93.8

O=c1cc(CO)occ1O [Kojic acid, kojic acid]
Melanin level ([1]; Experiment 3, 50 μg/ml): 76.5 | Melanin level ([1]; Experiment 3, 100 μg/ml): 65.7 | Melanin level ([1]; Experiment 7, 50 μg/ml): 85.6 | Melanin level ([1]; Experiment 7, 100 μg/ml): 65.3 | inhibitory effects on tyrosinase activity (tyrosinase (Sigma); [7]): strongest inhibitory effects on tyrosinase activity | Cell count ([2]; Experiment 3, 50 μg/ml, relative to control designated as 100): 80.2 | Cell count ([2]; Experiment 3, 100 μg/ml, relative to control designated as 100): 74.1 | Cell count ([2]; Experiment 7, 50 μg/ml, relative to control designated as 100): 80.2 | Cell count ([2]; Experiment 7, 100 μg/ml, relative to control designated as 100): 74.1

O=C(O)c1ccc(=O)oc1 [coumalic acid]
inhibitory effects on tyrosinase activity (tyrosinase): strong inhibitory effects

O=c1ccocc1O [3H4P, 3-Hydroxy-4-pyrone]
inhibitory effects on melanin production [1, 6]: equivalent to those of kojic acid | Melanin level ([1]; Experiment 7, 50 μg/ml): 88.8 | Melanin level ([1]; Experiment 7, 100 μg/ml): 50.9 | Cell count ([2]; mouse, 5 days, 50 μg/ml): 89.7 | Cell count ([2]; mouse, 5 days, 100 μg/ml): 84.4
